According to ChEMBL document CHEMBL1201862, “PubChem BioAssay data set” (2004):
Active and inactive are the calls of the source.

Key:
[1] = A Cell Based Secondary Assay To Explore Cytotoxicity of Compounds that Sensitize Mycobacterium Tuberculosis to Beta-Lactam Antibiotics.; format: functional
[2] = molecular target: T1, Neuropeptides B/W receptor type 1 (Homo sapiens, UniProt P48145); assay: Fluorescence-based dose response cell-based high throughput screening assay to identify antagonists of the G-protein coupled receptor 7 (GPR7). [Related pubchem assays: 1952 (Screening assay (GPR7 antagonists).), 1880 (Summary AID.)]; format: functional
T1 sequence (P48145 whole entry): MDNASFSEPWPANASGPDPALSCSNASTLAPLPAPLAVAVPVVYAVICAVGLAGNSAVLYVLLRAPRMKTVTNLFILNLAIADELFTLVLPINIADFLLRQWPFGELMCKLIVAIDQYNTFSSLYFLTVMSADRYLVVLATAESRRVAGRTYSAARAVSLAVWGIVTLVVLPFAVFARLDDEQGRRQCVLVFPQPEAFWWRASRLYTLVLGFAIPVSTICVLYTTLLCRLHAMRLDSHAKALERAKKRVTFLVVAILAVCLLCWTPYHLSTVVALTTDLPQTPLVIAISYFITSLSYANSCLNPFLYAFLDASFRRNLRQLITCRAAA

[3] = molecular target: Melanin-concentrating hormone receptor 1 (Homo sapiens, UniProt Q99705); assay: Fluorescence-based counterscreen for antagonists of the G-protein coupled receptor 7 (GPR7): cell-based high throughput dose response assay to identify antagonists of the melanin-concentrating hormone receptor 1 (MCHR1).; format: functional
[4] = molecular target: Glucose-6-phosphate 1-dehydrogenase (Homo sapiens, UniProt P11413); assay: human G6PD enzyme inhibitors, dose response, selectivity assay for P. falciparum G6PD inhibitor project, biochemical, fluorescence (AID 504792); format: functional
[5] = molecular target: T2, Long-chain-fatty-acid--AMP ligase FadD28 (Mycobacterium tuberculosis, UniProt P9WQ59); assay: Fluorescence polarization aasay to screen for inhibitors that compete for the binding of FadD28 to a bisubstrate Measured in Biochemical System Using Plate Reader - 2147-01_Inhibitor_Dose_CherryPick_Activity.; format: functional, Mycobacterium tuberculosis H37Rv
T2 sequence (P9WQ59 whole entry): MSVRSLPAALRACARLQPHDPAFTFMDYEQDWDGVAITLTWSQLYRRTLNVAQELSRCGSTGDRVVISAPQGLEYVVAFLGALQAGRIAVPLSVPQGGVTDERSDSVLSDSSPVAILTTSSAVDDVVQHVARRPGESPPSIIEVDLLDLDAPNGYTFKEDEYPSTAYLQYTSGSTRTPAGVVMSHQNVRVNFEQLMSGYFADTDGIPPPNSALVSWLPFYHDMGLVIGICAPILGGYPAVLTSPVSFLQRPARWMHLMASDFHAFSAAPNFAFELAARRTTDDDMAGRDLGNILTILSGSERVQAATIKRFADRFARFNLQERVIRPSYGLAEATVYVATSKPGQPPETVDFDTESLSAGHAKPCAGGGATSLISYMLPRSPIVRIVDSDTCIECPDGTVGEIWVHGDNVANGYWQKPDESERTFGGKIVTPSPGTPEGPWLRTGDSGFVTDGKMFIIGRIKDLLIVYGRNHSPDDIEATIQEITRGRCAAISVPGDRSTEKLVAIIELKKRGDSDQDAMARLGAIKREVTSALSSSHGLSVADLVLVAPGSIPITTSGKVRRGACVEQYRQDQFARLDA

Genome polyprotein = Genome polyprotein (dengue virus type 2, UniProt P29990); assay: Dengue-2 NS5 methyltransferase inhibitors, primary screen, biochemical, confirmation dose response (AID 588689); format: functional
[6] = Luminescence Cell-Based Dose Retest to Confirm Inhibitors of Cancer Stem Cells. [Related pubchem assays (depositor defined):AID2717, AID2721]; format: functional; conditions: Homo sapiens
Protein Wnt-3a = Protein Wnt-3a (Mus musculus, UniProt P27467); assay: Wnt3a-driven reporter signaling inhibition, dose response, selectivity assay for Gli-SUFU antagonist project, Wnt-LIGHT cells, luminescence (AID 651570); format: functional; conditions: read-out: IC50_Mean;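 note: Wnt-LIGHT reporter cells stimulated with conditioned medium from Wnt3a-producing cells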
Nonstructural protein 1 = Nonstructural protein 1 (Influenza A virus, UniProt Q194T2); format: functional, Influenza A virus (A/California/07/2009(H1N1))
[7] = molecular target: Ras and Rab interactor 1/Tyrosine-protein kinase ABL1 (Homo sapiens, UniProt P00519+Q13671); format: functional;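 note: biochemical TR-FRET dose-response test measuring inhibition of binding between Rin1 and Abl proteins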
[8] = A cytotoxicity screen of small molecule inhibitors of the PhoP region in Salmonella typhi identified in the primary screen. [Related pubchem assays: 1850, 1864, 1985 ]; format: functional
[9] = inhibitors of HIV Env-driven cell fusion, dose response, cherry-pick (AID 652057); format: functional, cell-based
[10] = CEM21 lymphoblast cell cytotoxicity, dose response, cytotoxicity control for viral fusion inhibitor project, CellTiter-Glo luminescence, cherry-picked (AID 652042); format: functional, cell-based;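 note: potency for signal decrease meaning cytotoxicity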
[11] = inhibitors of clade B AD8 Env fusion, dose response, cell-based, cherry-pick (AID 652062); format: functional;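 note: luciferase signal from cell-cell fusion driven by HIV-1 clade B AD8 Env; potency is for inhibitors of fusion seen as a drop in luminescence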
[12] = ZM109 Env clade C HIV-1 fusion inhibitors, dose response, HeLa effector, CEM target cells, luciferase, cherry-pick (AID 652058); format: functional, cell-based
[13] = off-target signal loss in HeLa-CEM21 co-culture – HeLa F-luc CTL cells, cherry-picked, counter-screen for HIV-1 Env fusion inhibitor project, dose response (AID 652040); format: functional, cell-based;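 note: potency for signal decrease marking cytotoxic or nonspecific inhibition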
[14] = molecular target: T3, Polyadenylate-binding protein 1 (Homo sapiens, UniProt P11940); assay: PABP1 MLLE–PAM2 interaction inhibitors, dose response, miRNA deadenylation inhibitor project, biochemical, fluorescence polarization, Cy5-PAM2 peptide, secondary (AID 602260); format: functional; conditions: read-out: IC50_Mean
[15] = molecular target: T3, Polyadenylate-binding protein 1; assay: PABP1 MLLE–PAM2 binding inhibitor potency, dose response, biochemical, fluorescence polarization, FITC-PAM2 peptide (AID 602259); format: functional; conditions: read-out: IC50_Mean

Melanin-concentrating hormone receptor 1, sequence (Q99705 whole entry): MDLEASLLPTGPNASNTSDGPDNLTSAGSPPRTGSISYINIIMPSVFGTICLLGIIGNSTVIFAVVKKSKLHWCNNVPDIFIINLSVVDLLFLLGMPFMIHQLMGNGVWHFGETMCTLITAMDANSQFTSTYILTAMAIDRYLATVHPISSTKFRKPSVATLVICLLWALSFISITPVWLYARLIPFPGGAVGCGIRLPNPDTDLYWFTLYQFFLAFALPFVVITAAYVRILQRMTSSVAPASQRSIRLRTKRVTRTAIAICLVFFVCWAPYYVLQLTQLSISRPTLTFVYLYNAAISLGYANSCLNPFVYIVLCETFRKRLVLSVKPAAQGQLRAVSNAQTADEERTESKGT
Protein Wnt-3a, sequence (P27467 whole entry): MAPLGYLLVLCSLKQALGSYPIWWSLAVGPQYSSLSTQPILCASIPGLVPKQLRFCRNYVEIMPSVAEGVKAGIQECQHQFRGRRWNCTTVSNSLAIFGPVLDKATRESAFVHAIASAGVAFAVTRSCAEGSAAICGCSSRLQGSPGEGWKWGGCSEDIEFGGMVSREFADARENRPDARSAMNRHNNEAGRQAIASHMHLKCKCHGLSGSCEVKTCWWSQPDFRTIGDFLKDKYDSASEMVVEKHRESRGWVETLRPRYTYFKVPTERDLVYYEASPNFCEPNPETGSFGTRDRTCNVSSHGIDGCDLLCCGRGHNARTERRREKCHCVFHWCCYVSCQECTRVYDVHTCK
T3 sequence (P11940 whole entry): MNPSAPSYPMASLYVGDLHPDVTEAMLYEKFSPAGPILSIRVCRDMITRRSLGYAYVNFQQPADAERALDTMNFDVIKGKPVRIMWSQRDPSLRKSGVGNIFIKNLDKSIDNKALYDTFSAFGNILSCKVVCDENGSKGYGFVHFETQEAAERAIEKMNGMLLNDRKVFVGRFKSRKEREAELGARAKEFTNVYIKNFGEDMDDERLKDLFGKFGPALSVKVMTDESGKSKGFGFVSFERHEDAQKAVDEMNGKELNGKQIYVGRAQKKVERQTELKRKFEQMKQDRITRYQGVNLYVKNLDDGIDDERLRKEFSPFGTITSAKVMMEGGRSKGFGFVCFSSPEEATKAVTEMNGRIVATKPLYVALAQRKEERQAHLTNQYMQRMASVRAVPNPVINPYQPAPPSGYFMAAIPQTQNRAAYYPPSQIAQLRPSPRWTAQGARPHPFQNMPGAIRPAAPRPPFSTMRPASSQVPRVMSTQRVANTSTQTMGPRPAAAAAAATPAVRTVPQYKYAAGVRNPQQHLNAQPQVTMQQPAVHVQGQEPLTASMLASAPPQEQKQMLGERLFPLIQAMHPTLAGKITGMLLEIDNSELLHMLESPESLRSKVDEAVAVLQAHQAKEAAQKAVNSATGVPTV
Nonstructural protein 1, sequence (Q194T2 whole entry): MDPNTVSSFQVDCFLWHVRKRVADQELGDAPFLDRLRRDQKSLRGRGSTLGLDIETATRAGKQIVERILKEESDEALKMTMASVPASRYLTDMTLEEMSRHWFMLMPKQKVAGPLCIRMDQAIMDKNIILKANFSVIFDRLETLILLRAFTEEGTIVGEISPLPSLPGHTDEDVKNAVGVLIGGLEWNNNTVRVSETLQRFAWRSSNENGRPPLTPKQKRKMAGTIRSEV
Genome polyprotein, sequence (P29990 2492-3391 limits assumed): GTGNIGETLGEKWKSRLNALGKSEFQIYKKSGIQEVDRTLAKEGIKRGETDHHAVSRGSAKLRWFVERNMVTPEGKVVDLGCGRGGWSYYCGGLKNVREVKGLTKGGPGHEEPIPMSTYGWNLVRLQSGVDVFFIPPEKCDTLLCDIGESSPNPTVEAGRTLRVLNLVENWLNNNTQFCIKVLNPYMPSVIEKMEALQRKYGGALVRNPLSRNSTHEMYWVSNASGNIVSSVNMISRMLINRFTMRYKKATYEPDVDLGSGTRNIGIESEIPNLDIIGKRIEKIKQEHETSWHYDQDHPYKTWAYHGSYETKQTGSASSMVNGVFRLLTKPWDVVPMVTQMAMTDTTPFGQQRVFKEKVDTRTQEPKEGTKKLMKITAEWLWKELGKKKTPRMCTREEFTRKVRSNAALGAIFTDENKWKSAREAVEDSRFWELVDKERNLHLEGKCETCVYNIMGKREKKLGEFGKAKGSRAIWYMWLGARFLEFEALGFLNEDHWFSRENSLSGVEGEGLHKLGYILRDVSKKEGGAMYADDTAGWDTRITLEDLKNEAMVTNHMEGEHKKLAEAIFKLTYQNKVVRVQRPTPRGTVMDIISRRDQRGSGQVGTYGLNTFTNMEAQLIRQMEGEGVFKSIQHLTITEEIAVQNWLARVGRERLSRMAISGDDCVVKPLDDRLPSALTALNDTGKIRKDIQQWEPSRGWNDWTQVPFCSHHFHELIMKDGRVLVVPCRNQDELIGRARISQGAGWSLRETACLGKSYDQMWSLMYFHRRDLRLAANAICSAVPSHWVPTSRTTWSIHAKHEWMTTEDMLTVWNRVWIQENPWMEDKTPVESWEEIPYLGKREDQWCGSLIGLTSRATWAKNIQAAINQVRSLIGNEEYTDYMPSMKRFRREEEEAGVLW
Ras and Rab interactor 1/Tyrosine-protein kinase ABL1, sequence (P00519 whole entry): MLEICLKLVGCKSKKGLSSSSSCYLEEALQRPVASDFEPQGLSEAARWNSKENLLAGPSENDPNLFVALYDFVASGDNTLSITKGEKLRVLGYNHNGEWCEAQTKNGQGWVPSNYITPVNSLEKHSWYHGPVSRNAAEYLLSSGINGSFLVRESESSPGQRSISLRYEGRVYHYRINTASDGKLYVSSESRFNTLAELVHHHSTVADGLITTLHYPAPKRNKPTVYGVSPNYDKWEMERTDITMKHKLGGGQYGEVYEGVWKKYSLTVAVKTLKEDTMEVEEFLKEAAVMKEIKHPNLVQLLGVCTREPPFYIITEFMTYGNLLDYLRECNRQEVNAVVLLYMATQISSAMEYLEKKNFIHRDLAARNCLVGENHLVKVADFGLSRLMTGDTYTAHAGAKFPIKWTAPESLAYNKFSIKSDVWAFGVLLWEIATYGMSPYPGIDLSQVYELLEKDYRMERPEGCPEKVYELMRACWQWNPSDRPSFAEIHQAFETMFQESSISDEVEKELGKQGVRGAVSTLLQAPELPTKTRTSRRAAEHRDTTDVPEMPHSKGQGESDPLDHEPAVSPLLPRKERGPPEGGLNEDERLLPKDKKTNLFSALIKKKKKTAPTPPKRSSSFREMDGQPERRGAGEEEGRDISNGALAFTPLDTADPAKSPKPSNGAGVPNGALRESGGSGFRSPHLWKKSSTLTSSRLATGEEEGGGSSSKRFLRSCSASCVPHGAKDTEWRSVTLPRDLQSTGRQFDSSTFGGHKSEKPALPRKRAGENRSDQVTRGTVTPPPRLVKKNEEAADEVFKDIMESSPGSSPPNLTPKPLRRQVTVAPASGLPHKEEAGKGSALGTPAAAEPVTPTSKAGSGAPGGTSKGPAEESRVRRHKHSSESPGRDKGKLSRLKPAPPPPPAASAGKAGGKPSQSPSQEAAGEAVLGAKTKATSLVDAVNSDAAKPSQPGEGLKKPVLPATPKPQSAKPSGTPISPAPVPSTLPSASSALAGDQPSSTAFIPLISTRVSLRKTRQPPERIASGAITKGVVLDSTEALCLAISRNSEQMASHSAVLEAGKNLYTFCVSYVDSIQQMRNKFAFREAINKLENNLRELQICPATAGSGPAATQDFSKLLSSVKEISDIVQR
Ras and Rab interactor 1/Tyrosine-protein kinase ABL1, sequence (Q13671 whole entry): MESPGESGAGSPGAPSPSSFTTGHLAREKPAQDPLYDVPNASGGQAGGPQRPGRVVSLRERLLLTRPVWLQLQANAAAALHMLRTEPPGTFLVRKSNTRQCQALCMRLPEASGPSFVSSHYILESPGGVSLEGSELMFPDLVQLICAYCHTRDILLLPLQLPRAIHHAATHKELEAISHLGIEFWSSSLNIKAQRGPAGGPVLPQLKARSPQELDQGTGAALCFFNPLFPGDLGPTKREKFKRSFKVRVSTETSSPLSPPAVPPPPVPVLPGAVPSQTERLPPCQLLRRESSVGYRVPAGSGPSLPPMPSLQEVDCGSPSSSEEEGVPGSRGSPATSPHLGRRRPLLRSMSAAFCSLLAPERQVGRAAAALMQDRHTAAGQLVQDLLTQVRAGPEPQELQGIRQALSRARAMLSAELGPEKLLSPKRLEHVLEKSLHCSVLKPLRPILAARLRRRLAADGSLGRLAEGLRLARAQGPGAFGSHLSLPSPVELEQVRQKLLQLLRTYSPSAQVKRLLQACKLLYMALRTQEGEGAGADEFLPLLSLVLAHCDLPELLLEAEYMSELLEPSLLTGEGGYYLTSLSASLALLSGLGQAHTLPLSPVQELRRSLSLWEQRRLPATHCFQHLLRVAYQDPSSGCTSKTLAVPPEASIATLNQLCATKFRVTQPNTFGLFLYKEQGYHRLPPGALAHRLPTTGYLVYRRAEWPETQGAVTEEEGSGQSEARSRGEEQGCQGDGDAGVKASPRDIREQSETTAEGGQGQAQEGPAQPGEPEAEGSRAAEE
Glucose-6-phosphate 1-dehydrogenase, sequence (P11413 whole entry): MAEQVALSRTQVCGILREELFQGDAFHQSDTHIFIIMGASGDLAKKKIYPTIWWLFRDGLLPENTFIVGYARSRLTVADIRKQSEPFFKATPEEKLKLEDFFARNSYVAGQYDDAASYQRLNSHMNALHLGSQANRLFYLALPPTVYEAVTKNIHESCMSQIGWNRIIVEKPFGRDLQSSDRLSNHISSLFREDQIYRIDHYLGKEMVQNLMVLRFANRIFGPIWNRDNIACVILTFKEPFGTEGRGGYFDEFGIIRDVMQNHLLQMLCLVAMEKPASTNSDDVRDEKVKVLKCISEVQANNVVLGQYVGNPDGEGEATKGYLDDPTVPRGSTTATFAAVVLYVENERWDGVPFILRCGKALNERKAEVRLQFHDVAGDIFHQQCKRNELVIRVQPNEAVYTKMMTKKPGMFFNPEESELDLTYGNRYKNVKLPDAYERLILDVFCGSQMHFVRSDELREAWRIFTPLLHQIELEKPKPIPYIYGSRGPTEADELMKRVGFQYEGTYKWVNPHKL

**Q.** For `N=C(NC(=O)c1ccccc1NC(=O)c1ccccc1)Nc1nc2ccccc2o1`, which CC50 [1] is on record?
**A.** > 40 µM (active)

**Q.** For `CCCCn1c(N)c(N(CC(C)C)C(=O)c2ccc(COc3ccccc3)o2)c(=O)[nH]c1=O`, which IC50 [2] is on record?
**A.** > 43.8 µM (not active)

**Q.** And the IC50 [3]?
**A.** > 43.8 µM (not active)

**Q.** What does the source list for `CCC1(CC)Cc2ccccc2C(N)=C1C#N`?
**A.** CC50 [1]: > 40 µM (active); IC50 [4]: > 80 µM (inactive)

**Q.** Which CC50 [1] does the source give for `C=CCc1cc(Cl)ccc1OCCCNC(C)CC` (centres undefined) here?
**A.** > 40 µM (active)

**Q.** For `O=C1NN(c2cccc(Br)c2)C(=O)/C1=C\c1ccccc1`, which AC50 [5] is on record?
**A.** > 100 µM (inactive)

**Q.** What about the IC50 (Genome polyprotein) of the same molecule?
**A.** 35.1 µM (active)

**Q.** What about the AC50 [6] of the same molecule?
**A.** 3.04 µM (active)

**Q.** Which IC50 (Protein Wnt-3a) does the source give for `Cc1ccc(NCC(=O)Nc2cccc(S(=O)(=O)N(C)C)c2)cc1S(=O)(=O)N1CCCCCC1` here?
**A.** 8.18 µM (active)

**Q.** With `O=C(NN1C(=O)/C(=C/c2nc3ccccc3[nH]2)SC1=S)c1ccccc1` as the molecule, how does the AC50 [5] read?
**A.** 70.5 µM (active)

**Q.** And the IC50 (Nonstructural protein 1)?
**A.** > 100 µM (active)

**Q.** Which results are given for `CCCCC(c1nnnn1C1CCCC1)N1CCN(C2CCCCC2)CC1` (centres undefined)?
**A.** IC50 [2]: > 43.8 µM (not active); IC50 [3]: > 43.8 µM (not active)

**Q.** For `Cc1ccc(C(=O)N2CCN3C(=O)c4ccccc4C23c2ccc(Cl)cc2)cc1` (centres undefined), which IC50 (Protein Wnt-3a) is on record?
**A.** 10.3 µM (active)

**Q.** With `CCN(CC)C(=O)c1ccc(NC(=O)c2cc(S(=O)(=O)N3CCCCCC3)ccc2OC)cc1` as the molecule, how does the IC50 [7] read?
**A.** 0.618 µM (active)

**Q.** For `Cc1ccnc(NC(=O)CCC(=O)N(CC(=O)NC2CCCCC2)C2CCCC2)c1`, which EC50 [8] is on record?
**A.** > 50 µM (active)

**Q.** What does the source list for `CCN(CC(=O)Nc1cccc(C#N)c1)CC(=O)Nc1cccc(OC)c1`?
**A.** IC50 [2]: > 43.8 µM (not active); IC50 [3]: 27.9 µM (not active)

**Q.** For `Cc1nc(Nc2nc(O)cc(CSc3nc4ccccc4[nH]3)n2)nc2ccccc12`, which AC50 [9] is on record?
**A.** 6.8 µM (active)

**Q.** And the AC50 [10]?
**A.** 11.2 µM (active)

**Q.** What about the AC50 [11] of the same molecule?
**A.** 10.3 µM (active)

**Q.** What about the AC50 [12] of the same molecule?
**A.** 7.51 µM (active)

**Q.** And the AC50 [13]?
**A.** 8.15 µM (active)

**Q.** And the AC50 [6]?
**A.** 3.58 µM (active)

**Q.** Which IC50 [14] does the source give for `Nc1c(-c2ccccc2)sc2ccc3ccccc3[n+]12` here?
**A.** > 66 µM (inactive)

**Q.** What about the EC50 [8] of the same molecule?
**A.** > 50 µM (active)

**Q.** And the IC50 [15]?
**A.** > 66 µM (inactive)

**Q.** With `Cc1ncc(CCl)c2c1OC(C)(C)OC2` as the molecule, how does the CC50 [1] read?
**A.** > 40 µM (active)
